{
  "source": "patent US20060069132A1",
  "about": "“Azolecarboxamide herbicides” (priority 2004, published 2006)",
  "key": {"barnyardgrass [1]": {"system": "barnyardgrass", "assay": "Test B pre-/postemergence herbicide test", "type": "in vivo, Echinochloa crus-galli", "details": "for Barnyardgrass plant response rating: postemergence, scale 0 (no effect) to 100 (complete control)", "in_short": "(§1)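 Herbicidal effect was judged by eye on a 0–100 scale after plants stood 13 to 15 days in the greenhouse following pre- or postemergence treatment with surfactant-containing formulations.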"}, "Surinam grass": {"system": "Surinam grass", "assay": "Test B pre-/postemergence herbicide test", "type": "in vivo, Urochloa decumbens", "details": "for Surinam Grass plant response rating: postemergence", "in_short": "as §1"}, "cocklebur": {"system": "cocklebur", "assay": "Test B pre-/postemergence herbicide test", "type": "in vivo, Xanthium strumarium", "details": "for Cocklebur plant response rating: postemergence, scale 0 (no effect) to 100 (complete control)", "in_short": "as §1"}, "corn": {"system": "corn", "assay": "Test B pre-/postemergence herbicide test", "type": "in vivo, Zea mays", "details": "for Corn plant response rating: postemergence", "in_short": "as §1"}, "large crabgrass": {"system": "large crabgrass", "assay": "Test B pre-/postemergence herbicide test", "type": "in vivo, Digitaria sanguinalis", "details": "for Crabgrass, Large plant response rating: postemergence", "in_short": "as §1"}, "giant foxtail": {"system": "giant foxtail", "assay": "Test B pre-/postemergence herbicide test", "type": "in vivo, Setaria faberi", "details": "for Foxtail, Giant plant response rating: postemergence", "in_short": "as §1"}, "lambsquarters": {"system": "lambsquarters", "assay": "Test B pre-/postemergence herbicide test", "type": "in vivo, Chenopodium album", "details": "for Lambsquarters plant response rating: postemergence", "in_short": "as §1"}, "morningglory": {"system": "morningglory", "assay": "Test B pre-/postemergence herbicide test", "type": "in vivo, Ipomoea coccinea", "details": "for Morningglory plant response rating: postemergence", "in_short": "as §1"}, "pigweed": {"system": "pigweed", "assay": "Test B pre-/postemergence herbicide test", "type": "in vivo, Amaranthus retroflexus", "details": "for Pigweed plant response rating: postemergence", "in_short": "as §1"}, "rice [2]": {"system": "rice", "assay": "Test B pre-/postemergence herbicide test", "type": "in vivo, Oryza sativa", "details": "0 = no effect, 100 = complete control, preemergence", "in_short": "as §1"}, "velvetleaf": {"system": "velvetleaf", "assay": "Test B pre-/postemergence herbicide test", "type": "in vivo, Abutilon theophrasti", "details": "for Velvetleaf plant response rating: postemergence", "in_short": "as §1"}, "blackgrass": {"system": "blackgrass", "assay": "Test B postemergence herbicide test", "type": "in vivo, Alopecurus myosuroides", "details": "postemergence, visual rating, scale 0 (no effect) to 100 (complete control)", "in_short": "(§2)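 Treated at 2-leaf (paddy) or 1–4-leaf, 2–18 cm (postemergence); greenhouse 13–15 d; visual score vs control, 0 none to 100 complete control; dash = not tested.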"}, "wheat": {"system": "wheat", "assay": "Test B postemergence herbicide test", "type": "in vivo, Triticum aestivum", "parameters": "key to Wheat plant response rating: 0 = no effect, 100 = complete control", "details": "postemergence", "in_short": "(§3)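 Formulated test chemicals went onto postemergence plants measuring 2 to 18 cm, at one to four leaves. For the paddy assay, species had reached two leaves. Scoring took place 13–15 days later by eye, relative to untreated plants, using 0 for no effect up to 100 for full control.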"}, "wild oat": {"system": "wild oat", "assay": "Test B postemergence herbicide test", "type": "in vivo, Avena fatua", "details": "postemergence", "in_short": "as §3"}, "rice [3]": {"system": "rice", "assay": "Test B flooded paddy test", "type": "in vivo, Oryza sativa", "details": "1000 g ai/ha, scale 0 to 100 (0 no effect, 100 complete control)", "in_short": "as §2"}, "[4]": {"system": "small flower umbrella sedge", "assay": "Test B flooded paddy test", "type": "in vivo, Cyperus difformis", "details": "1000 g ai/ha, scale 0 to 100 (0 no effect, 100 complete control)", "in_short": "as §2"}, "ducksalad [5]": {"system": "ducksalad", "assay": "Test B flooded paddy test", "type": "in vivo, Heteranthera limosa", "details": "1000 g ai/ha, scale 0 to 100 (0 no effect, 100 complete control)", "in_short": "as §2"}, "barnyardgrass [6]": {"system": "barnyardgrass", "assay": "Test B flooded paddy test", "type": "in vivo, Echinochloa crus-galli", "details": "1000 g ai/ha, scale 0 to 100 (0 no effect, 100 complete control)", "in_short": "as §2"}, "rice [7]": {"system": "rice", "assay": "Test C flooded paddy test", "type": "in vivo, Oryza sativa", "in_short": "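Plants were grown to the 1- to 4-leaf stage (2–18 cm) and then treated postemergence, or grown to the 2-leaf stage for the flooded paddy test. They were held in a greenhouse for 12 to 14 days and then scored by eye against controls, where 0 is no effect and 100 is complete control.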"}, "[8]": {"system": "smallflower umbrella sedge", "assay": "Test C flooded paddy test", "type": "in vivo, Cyperus difformis"}, "ducksalad [9]": {"system": "ducksalad", "assay": "Test C flooded paddy test", "type": "in vivo, Heteranthera limosa"}, "barnyardgrass [10]": {"system": "barnyardgrass", "assay": "Test C flooded paddy test", "type": "in vivo, Echinochloa crus-galli", "in_short": "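Greenhouse test with a 12–14 day hold after application and visual comparison with controls. Emerged plants were 1- to 4-leaf stage (2–18 cm) when sprayed postemergence, and the paddy barnyardgrass was at 2 leaves under flooded conditions. 100 = complete control.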"}, "[11]": {"details": "125 g ai/ha, 0 = no effect, 100 = complete control, preemergence"}, "[12]": {"details": "500 g ai/ha, visual rating, 0 = no effect, 100 = complete control, preemergence"}, "[13]": {"details": "125 g ai/ha, visual rating, scale 0 (no effect) to 100 (complete control)"}, "[14]": {"details": "500 g ai/ha, scale 0 to 100, 0 is no effect, 100 is complete control"}, "[15]": {"details": "125 g ai/ha, scale 0 to 100 (0 no effect, 100 complete control)"}, "[16]": {"details": "250 g ai/ha, scale of 0 to 100, 0 is no effect, 100 is complete control"}, "[17]": {"details": "500 g ai/ha, visual rating after 12 to 14 days, scale 0 to 100 (0 no effect, 100 complete control)"}},
  "data": [
    {"compound": "CCn1nc(C(C)(C)C)cc1C(=O)Nc1cncc(C(=O)N(C)C)c1", "note": "[Compound 258]", "values": [
      {"measurement": "Barnyardgrass plant response rating (0 to 100 scale)", "setting": "barnyardgrass [1]; [11]", "value": 70},
      {"measurement": "Plant response rating, Barnyardgrass", "setting": "barnyardgrass [1]; [12]", "value": 90},
      {"measurement": "Barnyardgrass plant response rating", "setting": "barnyardgrass [1]; 125 g ai/ha, visual rating", "value": 0},
      {"measurement": "Barnyardgrass plant response rating", "setting": "barnyardgrass [1]; 500 g ai/ha, visual rating", "value": 0},
      {"measurement": "Surinam Grass plant response rating (0 to 100 scale)", "setting": "Surinam grass; [11]", "value": 0},
      {"measurement": "Plant response rating, Surinam Grass", "setting": "Surinam grass; [12]", "value": 30},
      {"measurement": "Surinam Grass plant response rating", "setting": "Surinam grass; [13]", "value": 0},
      {"measurement": "Surinam Grass plant response rating", "setting": "Surinam grass; [14]", "value": 10},
      {"measurement": "Cocklebur plant response rating (0 to 100 scale)", "setting": "cocklebur; [11]", "value": 0},
      {"measurement": "Plant response rating, Cocklebur", "setting": "cocklebur; [12]", "value": 0},
      {"measurement": "Cocklebur plant response rating", "setting": "cocklebur; 125 g ai/ha, visual rating", "value": 20},
      {"measurement": "Cocklebur plant response rating", "setting": "cocklebur; 500 g ai/ha, visual rating", "value": 30},
      {"measurement": "Corn plant response rating (0 to 100 scale)", "setting": "corn; [11]", "value": 0},
      {"measurement": "Plant response rating, Corn", "setting": "corn; [12]", "value": 0},
      {"measurement": "Corn plant response rating", "setting": "corn; [13]", "value": 0},
      {"measurement": "Corn plant response rating", "setting": "corn; [14]", "value": 10},
      {"measurement": "Crabgrass, Large plant response rating (0 to 100 scale)", "setting": "large crabgrass; [11]", "value": 10},
      {"measurement": "Plant response rating, Crabgrass, Large", "setting": "large crabgrass; [12]", "value": 50},
      {"measurement": "Crabgrass, Large plant response rating", "setting": "large crabgrass; [13]", "value": 0},
      {"measurement": "Crabgrass, Large plant response rating", "setting": "large crabgrass; [14]", "value": 0},
      {"measurement": "Foxtail, Giant plant response rating (0 to 100 scale)", "setting": "giant foxtail; [11]", "value": 0},
      {"measurement": "Plant response rating, Foxtail, Giant", "setting": "giant foxtail; [12]", "value": 20},
      {"measurement": "Foxtail, Giant plant response rating", "setting": "giant foxtail; [13]", "value": 0},
      {"measurement": "Foxtail, Giant plant response rating", "setting": "giant foxtail; [14]", "value": 0},
      {"measurement": "Plant response rating, Lambsquarters", "setting": "lambsquarters; [12]", "value": 100},
      {"measurement": "Lambsquarters plant response rating", "setting": "lambsquarters; [13]", "value": 30},
      {"measurement": "Lambsquarters plant response rating", "setting": "lambsquarters; [14]", "value": 70},
      {"measurement": "Morningglory plant response rating (0 to 100 scale)", "setting": "morningglory; [11]", "value": 0},
      {"measurement": "Plant response rating, Morningglory", "setting": "morningglory; [12]", "value": 10},
      {"measurement": "Morningglory plant response rating", "setting": "morningglory; [13]", "value": 0},
      {"measurement": "Morningglory plant response rating", "setting": "morningglory; [14]", "value": 10},
      {"measurement": "Pigweed plant response rating (0 to 100 scale)", "setting": "pigweed; [11]", "value": 0},
      {"measurement": "Plant response rating, Pigweed", "setting": "pigweed; [12]", "value": 100},
      {"measurement": "Pigweed plant response rating", "setting": "pigweed; [13]", "value": 50},
      {"measurement": "Pigweed plant response rating", "setting": "pigweed; [14]", "value": 60},
      {"measurement": "Rice plant response rating (0 to 100 scale)", "setting": "rice [2]; 125 g ai/ha", "value": 20},
      {"measurement": "Plant response rating, Rice", "setting": "rice [2]; 500 g ai/ha, visual rating", "value": 90},
      {"measurement": "Velvetleaf plant response rating (0 to 100 scale)", "setting": "velvetleaf; [11]", "value": 0},
      {"measurement": "Plant response rating, Velvetleaf", "setting": "velvetleaf; [12]", "value": 60},
      {"measurement": "Velvetleaf plant response rating", "setting": "velvetleaf; [13]", "value": 0},
      {"measurement": "Velvetleaf plant response rating", "setting": "velvetleaf; [14]", "value": 0},
      {"measurement": "Blackgrass plant response rating", "setting": "blackgrass; 125 g ai/ha", "value": 10},
      {"measurement": "Blackgrass plant response rating", "setting": "blackgrass; 500 g ai/ha", "value": 10},
      {"measurement": "Wheat plant response rating", "setting": "wheat; [13]", "value": 20},
      {"measurement": "Wheat plant response rating", "setting": "wheat; [14]", "value": 20},
      {"measurement": "Oat, Wild plant response rating", "setting": "wild oat; [13]", "value": 20},
      {"measurement": "Oat, Wild plant response rating", "setting": "wild oat; [14]", "value": 30},
      {"measurement": "Rice plant response rating", "setting": "rice [3]", "value": 80},
      {"measurement": "Sedge, Umbrella plant response rating", "setting": "[4]", "value": 70},
      {"measurement": "Ducksalad plant response rating", "setting": "ducksalad [5]", "value": 90},
      {"measurement": "Barnyardgrass plant response rating", "setting": "barnyardgrass [6]", "value": 70},
      {"measurement": "Rice plant response rating", "setting": "rice [7]; 62 g ai/ha, scale 0 to 100", "value": 0},
      {"measurement": "Rice plant response rating", "setting": "rice [7]; [15]", "value": 0},
      {"measurement": "Rice plant response rating", "setting": "rice [7]; [16]", "value": 5},
      {"measurement": "Plant response rating, Rice", "setting": "rice [7]; [17]", "value": 70},
      {"measurement": "Sedge, Umbrella plant response rating", "setting": "[8]; 62 g ai/ha, scale 0 to 100", "value": 0},
      {"measurement": "Sedge, Umbrella plant response rating", "setting": "[8]; [15]", "value": 20},
      {"measurement": "Sedge, Umbrella plant response rating", "setting": "[8]; [16]", "value": 70},
      {"measurement": "Plant response rating, Sedge, Umbrella", "setting": "[8]; [17]", "value": 80},
      {"measurement": "Ducksalad plant response rating", "setting": "ducksalad [9]; 62 g ai/ha, scale 0 to 100", "value": 15},
      {"measurement": "Ducksalad plant response rating", "setting": "ducksalad [9]; [15]", "value": 45},
      {"measurement": "Ducksalad plant response rating", "setting": "ducksalad [9]; [16]", "value": 70},
      {"measurement": "Plant response rating, Ducksalad", "setting": "ducksalad [9]; [17]", "value": 90},
      {"measurement": "Barnyardgrass plant response rating", "setting": "barnyardgrass [10]; 62 g ai/ha, scale 0 to 100 (0 no effect, 100 complete control)", "value": 0},
      {"measurement": "Barnyardgrass plant response rating", "setting": "barnyardgrass [10]; [15]", "value": 0},
      {"measurement": "Barnyardgrass plant response rating", "setting": "barnyardgrass [10]; [16]", "value": 15},
      {"measurement": "Plant response rating, Barnyardgrass", "setting": "barnyardgrass [10]; [17]", "value": 45}
    ]}
  ]
}
